Data reported in ChEMBL document CHEMBL1141707, “Modification of the side chain of micromolide, an anti-tuberculosis natural product” (2008).
Converted amounts (≈) assume the structure as drawn.

tested on: Mycobacterium tuberculosis; test: Antitubercular activity against Mycobacterium tuberculosis H37Rv after 4 days by microplate alamar blue assay; assay type: functional; conditions: 96 h

Row | SMILES | MIC
1 | CCCCCCCC#CCCCCC1CCC(=O)O1 (configuration not stated) | 70.2 µM
2 | O=C1CCC(CCCCC2CC(C(=O)OCc3ccccc3)=NO2)O1 (configuration not stated) | > 128 µM
3 | CCCCCCCCCCCCCCC1CCC(=O)O1 (configuration not stated) | > 128 µM
4 | O=C1CCC(CCCCC2CC(C(=O)NCc3ccccc3)=NO2)O1 (configuration not stated) | > 128 µM
5 | CCOC(=O)c1cc(CCCCC2CCC(=O)O2)on1 (configuration not stated) | > 128 µM
6 | CCCCCCCCC#CCCCCC1CCC(=O)O1 (configuration not stated) | 44 µM
7 | CCCCCCC/C=C\CCCCC1CCC(=O)O1 (configuration not stated) | 14.7 µM
8 | CCCCCCNC(=O)c1cc(CCCCC2CCC(=O)O2)on1 (configuration not stated) | > 128 µM
9 | CCCCCCC1=NOC(CCCCC2CCC(=O)O2)C1 (configuration not stated) | > 128 µM
10 | CCN(CC)C(=O)C1=NOC(CCCCC2CCC(=O)O2)C1 (configuration not stated) | > 128 µM
11 | CCCCCCNC(=O)C1=NOC(CCCCC2CCC(=O)O2)C1 (configuration not stated) | > 128 µM
12 | CCCCCCCCNC(=O)CCCCC1CCC(=O)O1 (configuration not stated) | > 128 µM
13 | CCCCCCCC/C=C\CCCCC1CCC(=O)O1 (racemic) | 6.9 µM
14 | O=C1CCC(CCCCC2CC(C(=O)O)=NO2)O1 (configuration not stated) | > 128 µM
15 | CCCCCCCC1=NOC(CCCCC2CCC(=O)O2)C1 (configuration not stated) | > 128 µM
16 | CCCCCCC1=NOC(CCCC2CCC(=O)O2)C1 (configuration not stated) | > 128 µM
17 | CCCCCCCC1=NOC(CCCC2CCC(=O)O2)C1 (configuration not stated) | > 128 µM
18 | CCCCCCCC/C=C\CCCC[C@@H]1CCC(=O)O1 | 1.5 µg/mL
19 | CCCCCCCc1cc(CCCCC2CCC(=O)O2)on1 (configuration not stated) | 63.4 µM
20 | CCCCCCCCC(=O)NCCCCC1CCC(=O)O1 (configuration not stated) | > 128 µM
21 | CCCCCCOC(=O)C1=NOC(CCCCC2CCC(=O)O2)C1 (configuration not stated) | 63.1 µM
22 | CC(C)(C)OC(=O)C1=NOC(CCCCC2CCC(=O)O2)C1 (configuration not stated) | > 128 µM
23 | CCCCCCCC/C=C/CCCCC1CCC(=O)O1 (configuration not stated) | 19.7 µM
24 | CCCCCCCC(=O)NCCCCC1CCC(=O)O1 (configuration not stated) | > 128 µM
25 | CCOC(=O)C1=NOC(CCCCC2CCC(=O)O2)C1 (configuration not stated) | > 128 µM

tested on: Mycobacterium tuberculosis; test: Antitubercular activity against Mycobacterium tuberculosis H37Rv by low oxygen recovery assay; assay type: functional; conditions: not given

Row | SMILES | MIC [µM]
26 | CCCCCCCCCCCCCCC1CCC(=O)O1 (configuration not stated) | > 128
27 | CCCCCCCC/C=C\CCCCC1CCC(=O)O1 (racemic) | 124 (≈ 34.8 µg/mL)
